The source of these data is patent US7811797B2, “α-isomaltosylglucosaccharide-forming enzyme, process and uses of the same” (Kabushiki Kaisha Hayashibara Seibutsu Kagaku Kenkyujo, priority 2000, dated 2010).

In test [1] the test system is α-isomaltosyl-transferring enzyme. As to the kind of experiment: Influence of metal ions on the activity of α-isomaltosyl-transferring enzyme (Strain N75). Type of test: biochemical, Bacillus globisporus N75. To be noted: for influence on the enzyme activity, in words: 1 mM; for Relative activity (%): 1 mM of each metal-ion. As for the experimental part: (§1) The α-isomaltosyl-transferring enzyme was assayed for enzymatic activity by dissolving panose in 100 mM acetate buffer (pH 6.0) to give a concentration of 2% (w/v) for a substrate solution, adding a 0.5 ml of an enzyme solution to 0.5 ml of the substrate solution, enzymatically reacting the mixture solution at 35° C. for 30 min, suspending the reaction mixture by boiling for 10 min, and quantifying glucose, among the cyclotetrasaccharide and glucose formed in the reaction mixture, by the glucose oxidase method. One unit activity of the α-isomaltosyl-transferring enzyme is defined as the enzyme amount that forms one micromole of glucose per minute under the above enzymatic reaction conditions. Throughout the specification, the enzymatic activity of the α-isomaltosyl-transferring enzyme means the unit(s) assayed as above.
(§2) The influence of metal ions on the activity of α-isomaltosyl-transferring enzyme was examined in the presence of 1 mM of each metal-ion according to the assay for the enzyme activity.

For test [2], the system named is α-isomaltosylglucosaccharide-forming enzyme. As to the kind of experiment: Influence of metal ions on the activity of α-isomaltosylglucosaccharide-forming enzyme (Strain C11). Type of test: biochemical, Bacillus globisporus C11. To be noted: for influence on the enzyme activity, in words: 1 mM; for Relative activity (%): 1 mM of each metal-ion. As for the experimental part:
(§3) One unit activity of the α-isomaltosylglucosaccharide-forming enzyme is defined as the enzyme amount that forms one micromole of maltose per minute under the above enzymatic reaction conditions. Throughout the specification, the enzymatic activity of the α-isomaltosylglucosaccharide-forming enzyme means the unit(s) assayed as above.
The influence of metal ions on the activity of α-isomaltosylglucosaccharide forming enzyme was examined in the presence of 1 mM of each metal-ion according to the assay for the enzyme activity.

For test [3] the test system is unchanged. As to the kind of experiment: Influence of metal ions on the activity of α-isomaltosylglucosaccharide-forming enzyme (Strain A19). In kind it is biochemical, Arthrobacter globiformis A19. To be noted: for Relative activity (%): 1 mM of each metal-ion; for influence on the enzyme activity, in words: 1 mM.
The subject of test [4] is α-isomaltosyl-transferring enzyme. As to the kind of experiment: Influence of metal ions on the activity of α-isomaltosyl-transferring enzyme (Strain C9). In kind it is biochemical, Bacillus globisporus C9. To be noted: for influence on the enzyme activity, in words: 1 mM; for Relative activity (%): 1 mM of each metal-ion. As for the experimental part: as §1, with “above. […]” for “above.”

The test system is the same in test [5]. Type of test: biochemical, Bacillus globisporus C11. As to the method: as §1, §2
For test [6], the system named is α-isomaltosylglucosaccharide-forming enzyme. As to the kind of experiment: Influence of metal ions on the activity of α-isomaltosylglucosaccharide-forming enzyme (Strain C9). Type of test: biochemical, Bacillus globisporus C9. To be noted: for Relative activity (%): 1 mM of each metal-ion. As for the experimental part: as §3
(§4) The influence of metal ions on the activity of α-isomaltosylglucosaccharide-forming enzyme was examined in the presence of 1 mM of each metal-ion according to the assay for the enzyme activity.

The test system is the same in test [7]. Kind of test: Influence of metal ions on the activity of α-isomaltosylglucosaccharide-forming enzyme (Strain N75). In kind it is biochemical, Bacillus globisporus N75. To be noted: for influence on the enzyme activity, in words: 1 mM; for Relative activity (%): 1 mM of each metal-ion. As for the experimental part:
as §3, §4

The subject of test [8] is α-isomaltosyl-transferring enzyme. Kind of test: Influence of metal ions on the activity of α-isomaltosyl-transferring enzyme (Strain S1). Type of test: biochemical, Arthrobacter ramosus S1. To be noted: for Relative activity (%): 1 mM of each metal-ion. As to the method: as §1, §2

Where two headings read alike, the source gives them in different places.

With `[Ca+2]` [Ca^2+], the “influence on the enzyme activity, in words” value (“influence” below) in test [1] is on record as “not activated”; in test [2], “activated”; in test [4] it was “not activated”; in test [7] it was “activated”. Also, the “Relative activity (%)” value came out at 100% in test [1]; 109% in test [2]; 106% in test [3]; 101% in test [4]; 91% in test [5] (1 mM of each metal-ion); 115% in test [6]. In addition, the “Relative activity (%)” value in test [7] was determined as 108%; in test [8] it was 103%.
For `[Pb+2]` [Pb^2+], the “Relative activity (%)” value in test [1] was 69%; in test [2], 101%; in test [3], 43%; in test [4] it was 89%; in test [5] (1 mM of each metal-ion), 74%; in test [6], 103%. The “Relative activity (%)” value stood at 86% in test [7] and 85% in test [8].
`[Cu+2]` [Cu^2+]: the “influence” value was “also inhibited” in test [1]; “greatly inhibited” in test [2]; “greatly inhibited” in test [3]; “also inhibited” in test [4]; “greatly inhibited” in test [7]; “also inhibited” in test [8] (1 mM). Also, the “Relative activity (%)” value in test [1] was 15%; in test [2], 23%; in test [3] it was 0%; in test [4], 57%; in test [5] (1 mM of each metal-ion) it was 56%; in test [6], 15%. Also, the “Relative activity (%)” value in test [7] is recorded as 7%; in test [8], 2%.
Turning to `[Sr+2]` [Sr^2+], the “Relative activity (%)” value was found to be 91% in test [1]; 83% in test [2]; 102% in test [3]; 101% in test [4]; 93% in test [5] (1 mM of each metal-ion); 80% in test [6]. Also, the figures for the “Relative activity (%)” value in test [7] and in test [8] were 85% and 101%, respectively. Further, the “influence” value in test [2] was “also inhibited”.
Consider `[Co+2]` [Co^2+], for which the “Relative activity (%)” value worked out at 92% in test [1]; 96% in test [2]; 93% in test [3]; 103% in test [4]; 89% in test [5] (1 mM of each metal-ion); 100% in test [6]. The “Relative activity (%)” value in test [7] was found to be 93%; in test [8] it was 91%.
In the case of `O=C(O)CN(CCN(CC(=O)O)CC(=O)O)CC(=O)O` [EDTA, ethylenediaminetetraacetic acid, reference compound], the “influence” value in test [1] is given as “not inhibited”; in test [2], “greatly inhibited”; in test [3], “greatly inhibited”; in test [4], “not inhibited”; in test [5], “not inhibited”; in test [7], “greatly inhibited”. Also, the “Relative activity (%)” value worked out at 92% in test [1]; 24% in test [2]; 2% in test [3]; 104% in test [4]; 98% in test [5]; 20% in test [6]. The “Relative activity (%)” value was 35% in test [7] and 91% in test [8].
Take `[Ba+2]` [Ba^2+]: the “Relative activity (%)” value in test [1] is 102%; in test [2], 65%; in test [3], 99%; in test [4], 102%; in test [5] (1 mM of each metal-ion) it was 90%; in test [6], 65%. The “Relative activity (%)” value in test [7] was 84%; in test [8] it was 97%. Besides, the “influence” value in test [2] and in test [6] (1 mM) was “also inhibited” each time.
